# Reference: US20150315211A1, “SMALL MOLECULES FOR THE MODULATION OF MCL-1 AND METHODS OF MODULATING CELL DEATH, CELL DIVISION, CELL DIFFERENTIATION AND METHODS OF TREATING DISORDERS” (priority 2010, published 2015)
# Assays:
# MCL-1ΔNΔC [1] = test: High-throughput competitive FP binding screen, FITC-MCL-1 SAHB/MCL-1ΔNΔC interaction; settings: selectivity for MCL-1ΔNΔC over BCL-XLΔC targeting (BCL-XL % Bound minus MCL-1 % Bound)
# BCL-XLΔC = BCL-XLΔC (Homo sapiens, UniProt Q07817); test: High-throughput competitive FP binding screen, FITC-BAD BH3/BCL-XLΔC interaction; settings: FITC-BAD BH3/BCL-XLΔC interaction pair, competitive FP screen
# MCL-1ΔNΔC [2] = molecular target: MCL-1ΔNΔC (Homo sapiens, UniProt Q07820); test: High-throughput competitive FP binding screen, FITC-MCL-1 SAHB/MCL-1ΔNΔC interaction; set-up: the C-terminal alpha-helix was deleted from each of these constructs; GST (N, cleaved yes); made in house; settings: FITC-MCL-1 SAHB/MCL-1ΔNΔC interaction pair, competitive FP screen
# MCL-1ΔNΔC (Homo sapiens, UniProt Q07820), sequence (Q07820 172-320 limits assumed, stated change not applied): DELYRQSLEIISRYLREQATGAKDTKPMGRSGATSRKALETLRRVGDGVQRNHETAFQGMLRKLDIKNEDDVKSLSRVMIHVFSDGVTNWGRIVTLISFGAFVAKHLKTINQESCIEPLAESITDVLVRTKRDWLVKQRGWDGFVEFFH
# BCL-XLΔC, sequence (Q07817 1-212 limits assumed, stated change not applied): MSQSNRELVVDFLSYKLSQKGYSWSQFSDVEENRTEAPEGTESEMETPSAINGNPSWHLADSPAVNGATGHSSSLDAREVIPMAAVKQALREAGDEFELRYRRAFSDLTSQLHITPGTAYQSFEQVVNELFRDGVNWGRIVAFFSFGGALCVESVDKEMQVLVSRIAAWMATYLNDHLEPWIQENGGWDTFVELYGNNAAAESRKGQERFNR
Structure (SMILES),Spec Values (MCL-1ΔNΔC [1]),BCL-XL % Bound (BCL-XLΔC) [%],MCL-1% Bound (MCL-1ΔNΔC [2]) [%]
Cc1conc1NC(c1cccs1)c1ccc2cccnc2c1O (stereo not drawn),45.42,103.8,58.33
O=C1COc2ccc(-c3cs/c(=N\c4ccc(F)cc4)n3/N=C/c3ccc(O)c(O)c3)cc2N1,58.52,97.64,39.12
O=C1C2=C(C(=O)c3ccccc31)C(c1ccccc1O)c1sc(=O)[nH]c1S2 (stereo not drawn),58.45,88.86,30.41
CN1CCCN(Cc2cc(C(C)(C)C)c(O)c(C(C)(C)C)c2)CC1,58.29,83.5,25.21
O=C(CC1C(=O)c2ccccc2S1(=O)=O)NC1=NN(c2ccccc2)C(=O)C1 (stereo not drawn),57.74,65.35,7.61
c1coc(C2Nc3cccc4cccc(c34)N2)c1,57.32,106.3,48.94
CC(C)Cn1c2ccc(Cl)cc2c2nc3ccccc3nc21,57.12,89.44,32.32
c1cc(CNc2ccc(N3CCCC3)cc2)ccn1,56.89,95.63,38.73
COc1ccc(C2=CC(=O)C=CC2=O)cc1,56.64,92.03,35.4
Oc1ccc(NCc2ccc(Br)cc2)cc1,56.32,90.95,34.63
CCN(CC)S(=O)(=O)c1ccc(-c2ccc(/C=N/N=C3\NC(=O)C(CC(=O)Nc4ccccc4)S3)o2)cc1 (stereo not drawn),56.3,100.7,44.37
O=C1CSCC(=O)N1c1cc(C(F)(F)F)cc(C(F)(F)F)c1,56.05,101.7,45.62
O=C1C=CC(=O)N1CCc1ccc(Cl)cc1,55.93,97.07,41.14
N#C/C(=C\C=C\c1ccco1)C(N)=S,55.72,63.54,7.822
O=C1C=CC(=O)C(Sc2nnnn2-c2ccccc2)=C1,55.69,101.3,45.56
Cc1ccc2n1CCn1cc(-c3ccc(Br)cc3)cc1-2,55.6,99.37,43.77
O=C(CSc1ncc(C(F)(F)F)cc1Cl)NC(=O)CN1CCCC1=O,55.6,98.97,43.37
N#CC(C#N)=C(C#N)c1ccc(-c2ccccc2)[nH]1,55.59,90.7,35.11
c1ccc2c(c1)nc(Nc1ccc(N3CCCCC3)cc1)c1nncn12,55.41,90.45,35.03
C/C(=N\OCc1ccc(C(=O)N2CCCCC2)o1)c1cccc(C(F)(F)F)c1,55.34,110.8,55.48
CCOc1ccc2c(c1)C(C)=CC(C)(C)N2C(=O)CSc1nnc(C2CC2)n1C,55.24,95.37,40.13

Structure (SMILES),Spec Values (MCL-1ΔNΔC [1]),BCL-XL % Bound (BCL-XLΔC) [%],MCL-1% Bound (MCL-1ΔNΔC [2]) [%]
CCc1ccc2c(c1)C1(NN=C(c3ccccc3)S1)C(=O)N2 (stereo not drawn),55.23,99.43,44.19
Cc1cccc(NC(=O)CSc2nncc(=O)[nH]2)c1,55,82.27,27.28
Cc1ccc(C)n1Cc1ccc(C(=O)O)cc1,54.85,91.45,36.6
CC(C)CNC(=O)CCc1nc(-c2ccccc2)no1,54.73,92.21,37.48
Fc1ccccc1OCCSc1nnc2c(n1)[nH]c1ccccc12,54.35,99.56,45.2
N#Cc1cc2c([nH]c1=S)CCC2,54.04,86.64,32.6
O=C(O)C1CCCN(c2nn3cc(-c4ccc(F)cc4)nc3s2)C1 (stereo not drawn),53.98,82.02,28.04
CN(C)c1ccc2cccc(O)c2n1,53.86,95.09,41.22
CCOc1cccc(/C=N/n2c(S)nnc2-c2ccc(Cl)cc2)c1O,53.75,96.58,42.83
CCCCCOc1ccc(C(=O)/C=C/C(=O)O)cc1,53.61,97.46,43.85
Cc1nc2sccn2c1-c1nc(-c2ccc(Br)o2)c(C(=O)c2ccc3c(c2)OCCO3)s1,53.55,93.3,39.75
CC1CCC[SH](c2cc(O)ccc2O)C1 (stereo not drawn),53.57,94.72,41.16
O=c1c(O)cccc2cc(O)c(O)c(O)c12,53.55,33.74,−19.81
CC(/N=C/c1cccc(O)c1O)c1ccccc1 (stereo not drawn),53.29,93.71,40.42
N#CSC(C#N)Cc1ccccc1 (stereo not drawn),53.23,103.6,50.39
O=C(CSc1nnc(-c2ccoc2)c(-c2ccoc2)n1)c1ccc(-c2ccccc2)cc1,53.14,98.52,45.38
Oc1ccc(CNc2ccccc2O)cc1,53.12,89.38,36.26
CCCOc1nc2c(c(-c3ccco3)c1C#N)CCCC2,52.96,83.67,30.71
NC1=C(c2nc3ccccc3s2)CC(=O)N1CCc1ccccc1,52.91,108.5,55.57
C/C(=N\NC(=S)Nc1ccccc1C)c1ccc(O)cc1,52.6,103.4,50.82
C=CCSc1nnc(-c2ccc(C(C)(C)C)cc2)n1Cc1ccco1,52.3,122.3,69.99

Structure (SMILES),Spec Values (MCL-1ΔNΔC [1]),BCL-XL % Bound (BCL-XLΔC) [%],MCL-1% Bound (MCL-1ΔNΔC [2]) [%]
COC(=O)c1c(NC(=S)Nn2cnnc2)sc2c1CCC(C)C2 (stereo not drawn),52.28,77.55,25.26
O=C(/C=C/c1ccco1)NC(=S)Nc1ccccc1C(F)(F)F,52.25,99.25,47.01
O=C(/C=C/c1ccc(Br)o1)OCC(=O)c1c[nH]c2ccccc12,52.14,105.6,53.49
CCC(c1nnc(SCC(=O)NCCc2ccc(Cl)cc2Cl)o1)N(C)C (stereo not drawn),52.14,101.6,49.44
CCN1C(=O)C2Cc3cc(OC)c(OC)cc3CN2C1=S (stereo not drawn),51.9,91.73,39.84
CCn1c(-c2ccccc2)cnc1S,51.73,105.8,54.03
C=C/C(=C\C)N(CC)S(=O)(=O)c1ccc(Oc2ccc(-n3ccnc3)cc2)nc1,51.73,102.9,51.21
Cc1ccc(NCc2n[nH]c(=S)n2-c2ccccc2)cc1,51.62,94.84,43.22
COc1ccc(-n2nc3cc(C)c(N)c(Br)c3n2)cc1,51.41,83.97,32.56
Cc1nn(-c2ccccc2)c2nc3ccccc3c(N3CCOCC3)c12,50.97,98.28,47.31
COc1cccc(OCc2nnc(SCc3ccccc3)n2C)c1,50.95,97.51,46.56
CCOC(=O)c1c(C)oc2c1c1c(c3ccccc32)OCN(C2CC(C)(C)NC(C)(C)C2)C1,50.9,85,34.11
CC1CCC(C(C)C)C(OC(=O)COC(=O)c2ccc(O)cc2)C1 (stereo not drawn),50.73,106.5,55.74
Cc1cccc(CSc2ccc(-c3ccco3)nn2)c1,50.6,95.36,44.76
CSc1sc(C(=O)/C=C/N(C)C)c(-c2cccs2)c1C#N,50.48,30.42,−20.06
CCOc1cc(/C=C(/C#N)c2cccc(Br)c2)ccc1OCc1ccc(C(=O)O)o1,50.28,85.88,35.61
Cc1nn(C)c2nc(NNC(=O)c3cccc(C(F)(F)F)c3)ccc12,50.23,107.3,57.07
CCOC(=O)c1ccc2nc(NC(=O)CSc3nc(C)cc(=O)[nH]3)sc2c1,49.78,106.3,56.55
CC1=C(C)C/S(=N\S(=O)(=O)c2ccc(Cl)cc2)N(S(=O)(=O)c2ccc(Cl)cc2)C1 (stereo not drawn),49.76,100.2,50.42
O=c1ccc(-c2ccco2)nn1Cc1ccc(Cl)c(Cl)c1,49.7,96.49,46.79
